What was measured:
Experiment in all cases: kinome screen (33PanQinase)
Type in all cases: biochemical
ACK1 = target: T1, ACK1 (Homo sapiens, UniProt Q07912)
T1 construct: purchased Reaction Biology Europe GmbH (formerly ProQinase)
Procedure: (§1) The Kinome Screening was performed by Reaction Biology Europe GmbH (http://reactionbiology.com; Freiburg i. Br., Germany).

CDK1/CycA2 = target: T2, CDK1/CycA2 (Homo sapiens, UniProt P06493)
T2 construct: purchased Reaction Biology Europe GmbH (formerly ProQinase)
Procedure: as §1

CDK2/CycA2 = target: T3, CDK2/CycA2 (Homo sapiens, UniProt P24941)
T3 construct: purchased Reaction Biology Europe GmbH (formerly ProQinase)
Procedure: as §1

CDK6/CycD2 = target: T4, CDK6/CycD2 (Homo sapiens, UniProt Q00534)
T4 construct: purchased Reaction Biology Europe GmbH (formerly ProQinase)
Procedure: as §1

COT = target: T5, COT (Homo sapiens, UniProt P41279)
T5 construct: purchased Reaction Biology Europe GmbH (formerly ProQinase)
Procedure: as §1

DDR2 = target: T6, DDR2 (Homo sapiens, UniProt Q16832)
T6 construct: purchased Reaction Biology Europe GmbH (formerly ProQinase)
T6 sequence (Q16832 22-855): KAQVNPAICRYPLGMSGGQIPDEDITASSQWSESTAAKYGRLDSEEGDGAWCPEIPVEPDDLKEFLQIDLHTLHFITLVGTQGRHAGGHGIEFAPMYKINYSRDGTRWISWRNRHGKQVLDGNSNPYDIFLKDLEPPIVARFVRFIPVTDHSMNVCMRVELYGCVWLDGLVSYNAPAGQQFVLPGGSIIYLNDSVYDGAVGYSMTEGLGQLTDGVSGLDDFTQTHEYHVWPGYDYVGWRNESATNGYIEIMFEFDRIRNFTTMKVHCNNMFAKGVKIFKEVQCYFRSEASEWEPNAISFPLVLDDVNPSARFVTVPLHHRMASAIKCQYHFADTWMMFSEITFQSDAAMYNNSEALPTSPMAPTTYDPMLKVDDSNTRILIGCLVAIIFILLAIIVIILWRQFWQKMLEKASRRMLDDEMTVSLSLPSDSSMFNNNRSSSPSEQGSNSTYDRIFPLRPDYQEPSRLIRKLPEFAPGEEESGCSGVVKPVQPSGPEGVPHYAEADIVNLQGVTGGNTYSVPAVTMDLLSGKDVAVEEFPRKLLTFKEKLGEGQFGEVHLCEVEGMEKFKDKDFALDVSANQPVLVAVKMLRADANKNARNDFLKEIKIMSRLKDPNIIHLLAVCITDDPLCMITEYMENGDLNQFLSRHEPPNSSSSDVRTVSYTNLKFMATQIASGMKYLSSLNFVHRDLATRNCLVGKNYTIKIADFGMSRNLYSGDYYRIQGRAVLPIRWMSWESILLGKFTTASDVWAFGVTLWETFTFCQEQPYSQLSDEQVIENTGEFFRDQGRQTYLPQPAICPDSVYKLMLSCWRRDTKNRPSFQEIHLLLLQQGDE
Procedure: as §1

EPHA5 = target: T7, EPHA5 (Homo sapiens, UniProt P54756)
T7 construct: purchased Reaction Biology Europe GmbH (formerly ProQinase)
Procedure: as §1

INSRR = target: T8, INSRR (Homo sapiens, UniProt P14616)
T8 construct: purchased Reaction Biology Europe GmbH (formerly ProQinase)
T8 sequence (P14616 27-1297): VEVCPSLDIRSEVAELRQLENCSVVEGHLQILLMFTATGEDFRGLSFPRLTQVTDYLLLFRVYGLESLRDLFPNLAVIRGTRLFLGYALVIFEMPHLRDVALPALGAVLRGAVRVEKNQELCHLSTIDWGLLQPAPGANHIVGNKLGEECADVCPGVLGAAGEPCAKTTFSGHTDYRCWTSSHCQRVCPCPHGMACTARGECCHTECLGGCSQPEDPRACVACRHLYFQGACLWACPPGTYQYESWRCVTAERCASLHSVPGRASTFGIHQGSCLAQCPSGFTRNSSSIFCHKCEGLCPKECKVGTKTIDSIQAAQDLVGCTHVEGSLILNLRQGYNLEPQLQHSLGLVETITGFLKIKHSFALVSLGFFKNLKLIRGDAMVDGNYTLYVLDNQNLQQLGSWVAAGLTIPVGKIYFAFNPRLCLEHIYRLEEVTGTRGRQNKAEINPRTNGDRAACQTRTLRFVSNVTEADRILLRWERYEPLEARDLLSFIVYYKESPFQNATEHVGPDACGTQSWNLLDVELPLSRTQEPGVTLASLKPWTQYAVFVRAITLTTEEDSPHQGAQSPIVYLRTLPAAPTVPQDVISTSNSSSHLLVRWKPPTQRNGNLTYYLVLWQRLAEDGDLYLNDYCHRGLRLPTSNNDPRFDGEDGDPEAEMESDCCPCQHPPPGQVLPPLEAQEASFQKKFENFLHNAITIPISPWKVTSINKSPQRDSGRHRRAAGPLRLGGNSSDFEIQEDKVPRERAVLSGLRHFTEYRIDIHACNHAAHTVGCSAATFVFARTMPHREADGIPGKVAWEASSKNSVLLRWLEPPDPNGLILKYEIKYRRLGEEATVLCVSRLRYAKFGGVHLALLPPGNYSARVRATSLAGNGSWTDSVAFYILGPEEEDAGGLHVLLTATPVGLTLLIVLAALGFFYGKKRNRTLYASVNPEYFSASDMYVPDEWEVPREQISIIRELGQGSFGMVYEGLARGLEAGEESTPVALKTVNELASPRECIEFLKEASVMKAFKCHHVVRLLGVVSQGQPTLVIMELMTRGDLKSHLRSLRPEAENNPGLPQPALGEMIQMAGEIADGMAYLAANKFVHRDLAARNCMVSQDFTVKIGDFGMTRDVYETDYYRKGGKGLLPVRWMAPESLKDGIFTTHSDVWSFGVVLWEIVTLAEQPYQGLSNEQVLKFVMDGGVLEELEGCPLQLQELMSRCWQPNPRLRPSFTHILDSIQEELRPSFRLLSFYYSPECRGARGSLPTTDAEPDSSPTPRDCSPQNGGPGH
Procedure: as §1

LIMK1 = target: T9, LIMK1 (Homo sapiens, UniProt P53667)
T9 construct: purchased Reaction Biology Europe GmbH (formerly ProQinase)
T9 sequence (P53667 whole entry): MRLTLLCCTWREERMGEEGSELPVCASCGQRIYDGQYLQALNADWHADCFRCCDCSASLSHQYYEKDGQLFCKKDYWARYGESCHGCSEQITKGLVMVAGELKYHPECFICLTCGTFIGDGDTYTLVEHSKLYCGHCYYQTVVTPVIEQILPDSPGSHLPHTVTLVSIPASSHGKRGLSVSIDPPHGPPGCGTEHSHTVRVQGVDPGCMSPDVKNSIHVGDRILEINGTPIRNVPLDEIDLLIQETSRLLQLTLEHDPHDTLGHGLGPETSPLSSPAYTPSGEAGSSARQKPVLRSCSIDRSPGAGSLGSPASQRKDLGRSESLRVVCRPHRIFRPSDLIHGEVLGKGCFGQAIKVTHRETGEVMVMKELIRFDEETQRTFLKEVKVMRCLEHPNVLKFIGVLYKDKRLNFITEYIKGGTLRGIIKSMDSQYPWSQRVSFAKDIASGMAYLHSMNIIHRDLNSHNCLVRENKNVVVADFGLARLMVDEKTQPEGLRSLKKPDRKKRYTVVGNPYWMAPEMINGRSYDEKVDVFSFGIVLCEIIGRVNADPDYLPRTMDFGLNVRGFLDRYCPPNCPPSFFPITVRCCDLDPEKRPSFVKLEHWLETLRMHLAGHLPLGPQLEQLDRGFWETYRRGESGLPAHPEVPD
Procedure: as §1

MAP4K5 = target: T10, MAP4K5 (Homo sapiens, UniProt Q9Y4K4)
T10 construct: purchased Reaction Biology Europe GmbH (formerly ProQinase)
T10 sequence (Q9Y4K4 whole entry): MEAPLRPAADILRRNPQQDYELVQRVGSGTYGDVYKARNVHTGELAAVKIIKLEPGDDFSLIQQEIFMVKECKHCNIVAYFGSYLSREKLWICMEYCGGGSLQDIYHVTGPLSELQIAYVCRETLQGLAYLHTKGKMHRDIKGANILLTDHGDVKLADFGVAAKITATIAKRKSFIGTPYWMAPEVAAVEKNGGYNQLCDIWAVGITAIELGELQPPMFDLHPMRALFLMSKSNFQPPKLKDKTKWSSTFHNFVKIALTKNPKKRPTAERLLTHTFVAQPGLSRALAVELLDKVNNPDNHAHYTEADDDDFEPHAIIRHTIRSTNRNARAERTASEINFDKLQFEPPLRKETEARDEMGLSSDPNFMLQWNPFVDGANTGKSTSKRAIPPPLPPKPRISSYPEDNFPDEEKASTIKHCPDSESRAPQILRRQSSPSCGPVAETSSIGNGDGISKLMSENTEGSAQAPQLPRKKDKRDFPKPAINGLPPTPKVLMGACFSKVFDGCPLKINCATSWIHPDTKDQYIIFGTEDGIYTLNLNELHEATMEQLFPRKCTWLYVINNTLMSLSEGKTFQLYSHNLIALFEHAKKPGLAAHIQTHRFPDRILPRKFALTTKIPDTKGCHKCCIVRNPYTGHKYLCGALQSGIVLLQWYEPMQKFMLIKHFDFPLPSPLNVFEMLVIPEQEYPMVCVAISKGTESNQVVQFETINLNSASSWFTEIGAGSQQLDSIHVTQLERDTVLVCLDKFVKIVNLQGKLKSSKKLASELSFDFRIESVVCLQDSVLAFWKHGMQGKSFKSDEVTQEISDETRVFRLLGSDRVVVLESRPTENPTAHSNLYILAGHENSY
Procedure: as §1

MARK3 = target: T11, MARK3 (Homo sapiens, UniProt P27448)
T11 construct: purchased Reaction Biology Europe GmbH (formerly ProQinase)
T11 sequence (P27448 whole entry): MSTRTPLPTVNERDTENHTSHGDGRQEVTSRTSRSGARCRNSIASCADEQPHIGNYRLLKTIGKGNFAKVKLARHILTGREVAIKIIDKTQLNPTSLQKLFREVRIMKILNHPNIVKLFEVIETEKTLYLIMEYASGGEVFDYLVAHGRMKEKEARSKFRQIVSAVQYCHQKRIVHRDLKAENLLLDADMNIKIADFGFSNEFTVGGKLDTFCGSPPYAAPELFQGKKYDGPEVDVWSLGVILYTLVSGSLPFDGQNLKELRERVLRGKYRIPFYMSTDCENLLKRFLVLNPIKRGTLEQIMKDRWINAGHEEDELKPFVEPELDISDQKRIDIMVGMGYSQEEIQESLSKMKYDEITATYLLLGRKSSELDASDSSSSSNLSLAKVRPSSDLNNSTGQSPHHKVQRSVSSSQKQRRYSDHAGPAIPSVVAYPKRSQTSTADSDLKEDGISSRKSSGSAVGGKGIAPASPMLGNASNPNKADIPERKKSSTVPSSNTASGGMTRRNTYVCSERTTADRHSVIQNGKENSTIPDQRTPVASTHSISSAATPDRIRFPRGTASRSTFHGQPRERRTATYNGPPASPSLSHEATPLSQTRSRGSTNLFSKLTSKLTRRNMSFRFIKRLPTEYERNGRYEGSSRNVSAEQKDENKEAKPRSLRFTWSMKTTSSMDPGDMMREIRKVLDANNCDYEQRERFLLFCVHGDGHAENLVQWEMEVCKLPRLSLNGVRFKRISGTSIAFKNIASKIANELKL
Procedure: as §1

MKNK2 = target: T12, MKNK2 (Homo sapiens, UniProt Q9HBH9)
T12 construct: purchased Reaction Biology Europe GmbH (formerly ProQinase)
Procedure: as §1

PASK = target: T13, PASK (Homo sapiens, UniProt Q96RG2)
T13 construct: purchased Reaction Biology Europe GmbH (formerly ProQinase)
T13 sequence (Q96RG2 whole entry): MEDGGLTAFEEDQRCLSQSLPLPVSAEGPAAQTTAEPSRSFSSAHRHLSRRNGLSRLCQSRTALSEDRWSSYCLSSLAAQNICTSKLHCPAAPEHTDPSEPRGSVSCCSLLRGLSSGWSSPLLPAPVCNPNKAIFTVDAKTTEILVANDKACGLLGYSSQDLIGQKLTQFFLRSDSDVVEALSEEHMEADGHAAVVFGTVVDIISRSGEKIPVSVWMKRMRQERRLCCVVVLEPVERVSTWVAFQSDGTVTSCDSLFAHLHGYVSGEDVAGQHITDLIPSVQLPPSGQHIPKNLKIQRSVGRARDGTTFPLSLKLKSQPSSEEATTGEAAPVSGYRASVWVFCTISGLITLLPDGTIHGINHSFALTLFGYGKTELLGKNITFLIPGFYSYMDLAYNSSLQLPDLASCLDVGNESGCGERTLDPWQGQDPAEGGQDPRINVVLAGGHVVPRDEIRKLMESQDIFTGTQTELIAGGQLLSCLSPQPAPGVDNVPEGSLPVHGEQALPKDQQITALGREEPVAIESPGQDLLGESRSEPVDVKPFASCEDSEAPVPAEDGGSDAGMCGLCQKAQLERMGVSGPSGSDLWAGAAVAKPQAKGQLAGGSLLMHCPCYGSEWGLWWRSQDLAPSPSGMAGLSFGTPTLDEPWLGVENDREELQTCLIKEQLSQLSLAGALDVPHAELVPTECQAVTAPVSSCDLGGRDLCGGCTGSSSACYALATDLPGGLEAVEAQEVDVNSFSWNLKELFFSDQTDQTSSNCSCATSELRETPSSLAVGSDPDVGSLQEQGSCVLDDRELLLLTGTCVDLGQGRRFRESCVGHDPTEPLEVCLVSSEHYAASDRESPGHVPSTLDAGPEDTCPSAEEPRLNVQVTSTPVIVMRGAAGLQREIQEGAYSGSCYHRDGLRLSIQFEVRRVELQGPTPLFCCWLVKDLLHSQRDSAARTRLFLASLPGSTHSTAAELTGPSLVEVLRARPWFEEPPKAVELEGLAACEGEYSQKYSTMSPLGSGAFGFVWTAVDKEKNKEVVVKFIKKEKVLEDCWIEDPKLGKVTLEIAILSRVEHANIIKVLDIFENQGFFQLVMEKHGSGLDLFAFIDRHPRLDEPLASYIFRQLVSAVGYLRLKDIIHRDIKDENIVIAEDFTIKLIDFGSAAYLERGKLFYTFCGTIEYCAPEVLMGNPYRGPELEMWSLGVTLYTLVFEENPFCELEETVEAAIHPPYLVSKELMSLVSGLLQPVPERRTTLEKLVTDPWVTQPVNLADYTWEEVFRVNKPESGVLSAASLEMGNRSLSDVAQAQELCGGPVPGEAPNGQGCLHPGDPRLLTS
Procedure: as §1

PDK1 = target: T14, PDK1 (Homo sapiens, UniProt O15530)
T14 construct: purchased Reaction Biology Europe GmbH (formerly ProQinase)
T14 sequence (O15530 1-556): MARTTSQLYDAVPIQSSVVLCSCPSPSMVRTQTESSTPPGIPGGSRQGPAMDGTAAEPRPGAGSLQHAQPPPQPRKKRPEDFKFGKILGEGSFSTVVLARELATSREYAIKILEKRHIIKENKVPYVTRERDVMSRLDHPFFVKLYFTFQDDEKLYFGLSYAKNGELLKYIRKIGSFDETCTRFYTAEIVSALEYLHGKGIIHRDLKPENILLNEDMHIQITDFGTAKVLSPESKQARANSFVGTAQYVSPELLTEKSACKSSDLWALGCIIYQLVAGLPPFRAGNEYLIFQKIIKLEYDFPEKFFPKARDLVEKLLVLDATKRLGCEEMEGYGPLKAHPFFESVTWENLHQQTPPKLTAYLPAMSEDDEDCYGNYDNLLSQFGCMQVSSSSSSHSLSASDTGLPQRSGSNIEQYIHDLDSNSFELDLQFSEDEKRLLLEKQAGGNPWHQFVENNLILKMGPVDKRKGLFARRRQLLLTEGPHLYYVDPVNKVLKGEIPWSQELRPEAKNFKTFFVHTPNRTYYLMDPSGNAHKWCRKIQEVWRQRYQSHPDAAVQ
Procedure: as §1

RPS6KA2 = target: T15, RPS6KA2 (Homo sapiens, UniProt Q15349)
T15 construct: purchased Reaction Biology Europe GmbH (formerly ProQinase)
Procedure: as §1

p38γ = target: T16, p38γ (Homo sapiens, UniProt P53778)
T16 construct: purchased Reaction Biology Europe GmbH (formerly ProQinase)
T16 sequence (P53778 1-367): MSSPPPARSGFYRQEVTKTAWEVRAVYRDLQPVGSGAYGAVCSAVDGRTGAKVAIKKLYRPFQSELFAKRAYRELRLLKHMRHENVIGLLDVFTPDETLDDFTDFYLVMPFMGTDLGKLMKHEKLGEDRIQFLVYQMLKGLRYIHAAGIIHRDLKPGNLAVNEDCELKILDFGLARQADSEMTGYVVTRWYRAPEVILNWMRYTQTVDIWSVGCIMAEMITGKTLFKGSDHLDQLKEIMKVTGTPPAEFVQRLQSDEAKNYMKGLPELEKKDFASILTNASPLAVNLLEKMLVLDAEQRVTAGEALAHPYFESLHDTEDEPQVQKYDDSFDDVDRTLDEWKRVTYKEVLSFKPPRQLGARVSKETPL
Procedure: as §1

Row | SMILES | residual kinase activity (ACK1; 0.3 µM) | residual kinase activity (CDK1/CycA2; 0.3 µM) | residual kinase activity (CDK2/CycA2; 0.3 µM) | residual kinase activity (CDK6/CycD2; 0.3 µM) | residual kinase activity (COT; 0.3 µM) | residual kinase activity (DDR2; 0.3 µM) | residual kinase activity (EPHA5; 0.3 µM) | residual kinase activity (INSRR; 0.3 µM) | residual kinase activity (LIMK1; 0.3 µM) | residual kinase activity (MAP4K5; 0.3 µM) | residual kinase activity (MARK3; 0.3 µM) | residual kinase activity (MKNK2; 0.3 µM) | residual kinase activity (PASK; 0.3 µM) | residual kinase activity (PDK1; 0.3 µM) | residual kinase activity (RPS6KA2; 0.3 µM) | residual kinase activity (p38γ; 0.3 µM) | further results
1 | c1ccc(CNc2cc(-c3c[nH]c4ncccc34)ccn2)cc1 [meriolin 36] | 59 % of control | 2 % of control | 1 % of control | 47 % of control | 85 % of control | 59 % of control | 146 % of control | 85 % of control | 9 % of control | 3 % of control | 89 % of control | 16 % of control | 3 % of control | 160 % of control | 6 % of control | 64 % of control | residual kinase activity (ACK1; 3 µM): 15 % of control; residual kinase activity (CDK1/CycA2; 3 µM): 1 % of control; residual kinase activity (CDK2/CycA2; 3 µM): 2 % of control; residual kinase activity (CDK6/CycD2; 3 µM): 10 % of control; residual kinase activity (COT; 3 µM): 92 % of control; residual kinase activity (DDR2; 3 µM): 17 % of control; residual kinase activity (EPHA5; 3 µM): 84 % of control; residual kinase activity (INSRR; 3 µM): 39 % of control; residual kinase activity (LIMK1; 3 µM): 1 % of control; residual kinase activity (MAP4K5; 3 µM): 0 % of control; residual kinase activity (MARK3; 3 µM): 48 % of control; residual kinase activity (MKNK2; 3 µM): 3 % of control; residual kinase activity (PASK; 3 µM): 0 % of control; residual kinase activity (PDK1; 3 µM): 39 % of control; residual kinase activity (RPS6KA2; 3 µM): 0 % of control; residual kinase activity (p38γ; 3 µM): 19 % of control
2 | COc1ccnc2[nH]cc(-c3cc(N)nc(N)c3)c12 [meriolin 16] | 72 % of control | 5 % of control | 2 % of control | 76 % of control | 86 % of control | 93 % of control | 102 % of control | 96 % of control | 3 % of control | 52 % of control | 86 % of control | 62 % of control | 39 % of control | 83 % of control | 34 % of control | 8 % of control | residual kinase activity (ACK1; 0.03 µM): 83 % of control; residual kinase activity (CDK1/CycA2; 0.03 µM): 32 % of control; residual kinase activity (CDK2/CycA2; 0.03 µM): 18 % of control; residual kinase activity (CDK6/CycD2; 0.03 µM): 93 % of control; residual kinase activity (COT; 0.03 µM): 104 % of control; residual kinase activity (DDR2; 0.03 µM): 105 % of control; residual kinase activity (EPHA5; 0.03 µM): 115 % of control; residual kinase activity (INSRR; 0.03 µM): 97 % of control; residual kinase activity (LIMK1; 0.03 µM): 10 % of control; residual kinase activity (MAP4K5; 0.03 µM): 87 % of control; residual kinase activity (MARK3; 0.03 µM): 99 % of control; residual kinase activity (MKNK2; 0.03 µM): 93 % of control; residual kinase activity (PASK; 0.03 µM): 82 % of control; residual kinase activity (PDK1; 0.03 µM): 98 % of control; residual kinase activity (RPS6KA2; 0.03 µM): 87 % of control; residual kinase activity (p38γ; 0.03 µM): 56 % of control

— article PMC11167047 (Cell Death Discovery, 2024)
